Measured values taken from article PMC7827406, “Structure–Activity Relationship (SAR) Study of Spautin-1 to Entail the Discovery of Novel NEK4 Inhibitors” (International Journal of Molecular Sciences, 2021).
Where two headings read alike, the source gives them in different places.

Legend:
Experiment in all cases: biochemical
Design in all cases: Eurofins KinaseProfiler full panel at Km ATP, residual kinase activity (%) relative to DMSO
Abl(T315I)(h) = target: T1, Abl(T315I)(h) (Homo sapiens, UniProt P00519, T315I)
T1 construct: gene ABL1
Procedure, shortened: (§1)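 Radiometric kinase activity assays were run with ATP at Km and compounds at 10 µM, and remaining activity (%) was reported. A separate competitive binding screen measured DNA-tagged kinase displaced from immobilized active-site ligands by qPCR, giving percent kinase still bound at 10 µM compound in DMSO.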

BrSK2(h) = target: T2, BrSK2(h) (Homo sapiens, UniProt Q8IWQ3)
T2 sequence (Q8IWQ3 1-736): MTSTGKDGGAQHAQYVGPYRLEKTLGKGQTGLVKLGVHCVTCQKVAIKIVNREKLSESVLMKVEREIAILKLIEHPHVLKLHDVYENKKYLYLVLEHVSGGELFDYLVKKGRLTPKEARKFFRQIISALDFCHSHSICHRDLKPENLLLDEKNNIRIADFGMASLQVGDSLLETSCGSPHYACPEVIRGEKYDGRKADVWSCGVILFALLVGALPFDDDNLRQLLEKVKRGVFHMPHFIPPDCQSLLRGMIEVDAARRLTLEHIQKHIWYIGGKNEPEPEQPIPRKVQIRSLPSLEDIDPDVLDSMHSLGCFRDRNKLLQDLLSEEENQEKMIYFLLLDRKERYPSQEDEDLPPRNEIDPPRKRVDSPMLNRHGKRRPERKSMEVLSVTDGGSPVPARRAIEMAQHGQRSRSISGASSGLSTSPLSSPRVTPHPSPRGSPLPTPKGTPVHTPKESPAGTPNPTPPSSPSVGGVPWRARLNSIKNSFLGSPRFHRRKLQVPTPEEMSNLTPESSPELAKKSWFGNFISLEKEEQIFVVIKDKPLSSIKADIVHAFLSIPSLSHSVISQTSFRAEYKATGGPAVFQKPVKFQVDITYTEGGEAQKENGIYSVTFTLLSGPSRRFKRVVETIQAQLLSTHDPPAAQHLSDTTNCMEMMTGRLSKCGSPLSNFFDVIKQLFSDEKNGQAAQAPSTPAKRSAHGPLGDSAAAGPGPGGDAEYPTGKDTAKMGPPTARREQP
Procedure, shortened: as §1

FGFR3(h) = FGFR3(h) (Homo sapiens, UniProt P22607)
Chain of FGFR3(h) (P22607 whole entry): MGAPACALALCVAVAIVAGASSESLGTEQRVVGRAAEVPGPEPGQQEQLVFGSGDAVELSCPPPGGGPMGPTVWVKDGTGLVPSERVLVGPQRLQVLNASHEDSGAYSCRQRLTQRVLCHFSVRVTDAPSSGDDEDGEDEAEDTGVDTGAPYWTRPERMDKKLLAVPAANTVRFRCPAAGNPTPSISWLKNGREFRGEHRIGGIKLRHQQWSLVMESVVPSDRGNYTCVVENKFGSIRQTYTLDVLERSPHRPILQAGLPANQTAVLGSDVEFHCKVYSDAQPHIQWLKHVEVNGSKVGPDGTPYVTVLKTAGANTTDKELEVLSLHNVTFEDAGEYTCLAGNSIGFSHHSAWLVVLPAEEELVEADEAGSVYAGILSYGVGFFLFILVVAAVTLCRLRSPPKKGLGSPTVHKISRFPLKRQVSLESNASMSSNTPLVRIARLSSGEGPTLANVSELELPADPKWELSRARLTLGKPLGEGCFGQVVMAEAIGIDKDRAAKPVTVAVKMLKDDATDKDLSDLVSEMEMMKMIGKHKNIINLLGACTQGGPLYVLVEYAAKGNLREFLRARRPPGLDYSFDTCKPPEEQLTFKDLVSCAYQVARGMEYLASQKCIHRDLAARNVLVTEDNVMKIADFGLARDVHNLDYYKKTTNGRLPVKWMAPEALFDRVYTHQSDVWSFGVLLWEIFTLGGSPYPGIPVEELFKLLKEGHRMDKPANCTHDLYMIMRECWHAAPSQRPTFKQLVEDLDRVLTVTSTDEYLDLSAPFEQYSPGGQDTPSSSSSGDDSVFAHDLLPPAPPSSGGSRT
Procedure, shortened: as §1

MST4(h) = target: T3, MST4(h) (Homo sapiens, UniProt Q9P289)
T3 construct: gene STK26
T3 sequence (Q9P289 whole entry): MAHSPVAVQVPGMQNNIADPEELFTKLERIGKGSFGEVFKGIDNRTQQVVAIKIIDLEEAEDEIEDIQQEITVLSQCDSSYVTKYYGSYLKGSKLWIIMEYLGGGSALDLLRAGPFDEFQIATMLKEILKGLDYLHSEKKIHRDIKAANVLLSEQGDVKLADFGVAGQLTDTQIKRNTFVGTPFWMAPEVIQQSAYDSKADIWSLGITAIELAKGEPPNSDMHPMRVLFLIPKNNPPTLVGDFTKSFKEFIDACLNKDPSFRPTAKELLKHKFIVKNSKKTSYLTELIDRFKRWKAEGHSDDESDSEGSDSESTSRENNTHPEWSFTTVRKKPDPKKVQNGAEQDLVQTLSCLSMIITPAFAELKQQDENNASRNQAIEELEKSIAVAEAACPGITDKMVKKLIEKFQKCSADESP
Procedure, shortened: as §1

NEK1(h) = target: T4, NEK1(h) (Homo sapiens, UniProt Q96PY6)
T4 sequence (Q96PY6 1-1258): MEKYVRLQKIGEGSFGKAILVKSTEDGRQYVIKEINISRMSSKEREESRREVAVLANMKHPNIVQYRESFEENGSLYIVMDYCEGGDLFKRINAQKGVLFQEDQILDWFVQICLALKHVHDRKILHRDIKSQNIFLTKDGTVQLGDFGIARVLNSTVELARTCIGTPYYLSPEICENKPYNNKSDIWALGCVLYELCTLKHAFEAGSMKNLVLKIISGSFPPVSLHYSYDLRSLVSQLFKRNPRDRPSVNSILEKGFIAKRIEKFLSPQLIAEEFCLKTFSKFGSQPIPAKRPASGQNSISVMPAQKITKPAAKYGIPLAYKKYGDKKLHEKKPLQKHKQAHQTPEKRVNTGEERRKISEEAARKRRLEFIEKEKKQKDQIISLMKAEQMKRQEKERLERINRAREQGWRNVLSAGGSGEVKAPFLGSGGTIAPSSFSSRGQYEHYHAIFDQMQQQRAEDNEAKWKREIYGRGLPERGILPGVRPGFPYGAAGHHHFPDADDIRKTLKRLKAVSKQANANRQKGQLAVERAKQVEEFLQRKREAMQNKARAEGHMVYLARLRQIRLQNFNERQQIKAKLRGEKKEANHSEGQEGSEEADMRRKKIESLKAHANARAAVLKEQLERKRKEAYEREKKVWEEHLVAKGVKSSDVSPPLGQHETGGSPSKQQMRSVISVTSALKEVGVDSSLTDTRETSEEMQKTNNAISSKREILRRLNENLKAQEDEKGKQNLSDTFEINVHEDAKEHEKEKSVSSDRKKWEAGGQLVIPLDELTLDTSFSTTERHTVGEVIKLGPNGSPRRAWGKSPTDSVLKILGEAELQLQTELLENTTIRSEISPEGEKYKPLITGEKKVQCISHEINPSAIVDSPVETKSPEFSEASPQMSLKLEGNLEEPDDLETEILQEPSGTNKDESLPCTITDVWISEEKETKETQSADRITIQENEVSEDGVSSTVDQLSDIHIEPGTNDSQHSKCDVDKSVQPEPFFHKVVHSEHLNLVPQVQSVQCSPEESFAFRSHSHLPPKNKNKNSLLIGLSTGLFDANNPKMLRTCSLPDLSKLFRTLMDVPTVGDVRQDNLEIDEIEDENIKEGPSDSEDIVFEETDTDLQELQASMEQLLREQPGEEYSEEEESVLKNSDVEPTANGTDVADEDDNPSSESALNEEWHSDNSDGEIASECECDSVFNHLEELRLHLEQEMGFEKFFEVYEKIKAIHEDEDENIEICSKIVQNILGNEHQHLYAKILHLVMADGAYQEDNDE
Procedure, shortened: as §1

Ret(h) = Ret(h) (Homo sapiens, UniProt P07949)
Chain of Ret(h) (P07949 whole entry): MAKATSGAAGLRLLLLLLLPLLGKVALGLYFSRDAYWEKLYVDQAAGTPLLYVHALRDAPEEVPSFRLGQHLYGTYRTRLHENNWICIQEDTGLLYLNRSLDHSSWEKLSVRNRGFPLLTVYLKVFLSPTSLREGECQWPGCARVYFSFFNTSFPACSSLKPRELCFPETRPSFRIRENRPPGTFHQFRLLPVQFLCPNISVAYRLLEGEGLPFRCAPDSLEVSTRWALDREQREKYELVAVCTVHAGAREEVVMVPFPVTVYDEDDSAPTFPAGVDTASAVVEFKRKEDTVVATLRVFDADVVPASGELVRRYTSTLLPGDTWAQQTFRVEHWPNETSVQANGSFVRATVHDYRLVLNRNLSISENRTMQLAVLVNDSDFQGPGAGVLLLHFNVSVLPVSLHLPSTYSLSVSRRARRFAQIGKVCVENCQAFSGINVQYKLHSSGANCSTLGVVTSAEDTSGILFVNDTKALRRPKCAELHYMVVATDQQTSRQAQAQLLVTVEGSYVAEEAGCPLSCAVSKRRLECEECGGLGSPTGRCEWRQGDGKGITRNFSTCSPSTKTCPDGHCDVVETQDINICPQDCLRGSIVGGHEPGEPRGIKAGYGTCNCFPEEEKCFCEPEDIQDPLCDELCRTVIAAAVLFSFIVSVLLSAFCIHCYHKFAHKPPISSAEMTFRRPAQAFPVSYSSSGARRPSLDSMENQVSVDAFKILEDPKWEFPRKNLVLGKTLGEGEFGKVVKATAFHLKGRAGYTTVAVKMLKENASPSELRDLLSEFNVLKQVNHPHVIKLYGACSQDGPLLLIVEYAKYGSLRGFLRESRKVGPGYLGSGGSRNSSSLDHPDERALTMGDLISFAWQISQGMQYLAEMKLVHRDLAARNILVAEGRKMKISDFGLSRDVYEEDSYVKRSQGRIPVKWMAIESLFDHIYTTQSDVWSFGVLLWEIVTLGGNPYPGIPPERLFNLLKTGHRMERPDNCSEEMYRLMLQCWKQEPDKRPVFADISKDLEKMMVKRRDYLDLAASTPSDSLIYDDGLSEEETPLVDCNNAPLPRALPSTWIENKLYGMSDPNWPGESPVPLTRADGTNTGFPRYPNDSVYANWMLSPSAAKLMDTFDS
Procedure, shortened: as §1

[1] = read-out: Residual activity (%) Spautin-1 5aa
[2] = read-out: Residual activity (%) 5as
[3] = read-out: Residual activity (%) 5at
[4] = read-out: Residual activity (%) 5ay

Work on Fc1ccc(CNc2ncnc3ccc(F)cc23)cc1 [5aa, 6-Fluoro-N-(4-fluorobenzyl)-4-Quinazolinamine] yielded a remaining activity at 10 µM (Abl(T315I)(h); [1]) of 73%, a remaining activity at 10 µM (BrSK2(h); [1]) of 79% and a remaining activity at 10 µM (FGFR3(h); [1]) of 97%. It also gave a remaining activity at 10 µM (MST4(h); [1]) of 58%, a remaining activity at 10 µM (NEK1(h); [1]) of 81% and a remaining activity at 10 µM (Ret(h); [1]) of 69%.

Fc1ccc(CCNc2ncnc3ccc(F)cc23)cc1 [5as, 6-Fluoro-N-[2-(4-Fluorophenyl)Ethyl]-4-Quinazolinamine] was tested, and the remaining activity at 10 µM (Abl(T315I)(h); [2]) was 101%, the remaining activity at 10 µM (BrSK2(h); [2]) was 65% and the remaining activity at 10 µM (FGFR3(h); [2]) was 108%. The remaining activity at 10 µM (MST4(h); [2]) was 81%, the remaining activity at 10 µM (NEK1(h); [2]) was 97% and the remaining activity at 10 µM (Ret(h); [2]) was 99%.

Fc1ccc2ncnc(NCCc3ccc(Cl)cc3)c2c1 [5at, N-[2-(4-Chlorophenyl)Ethyl]-6-Fluoro-4-Quinazolinamine] gave a remaining activity at 10 µM (Abl(T315I)(h); [3]) of 80%, a remaining activity at 10 µM (BrSK2(h); [3]) of 71% and a remaining activity at 10 µM (FGFR3(h); [3]) of 99%. The remaining activity at 10 µM (MST4(h); [3]) was 72%, the remaining activity at 10 µM (NEK1(h); [3]) was 70% and the remaining activity at 10 µM (Ret(h); [3]) was 62%.

Compound COc1ccc2ncnc(Nc3cccc(F)c3)c2c1 [5ay, N-(3-Fluorophenyl)-6-Methoxy-4-Quinazolinamine] has a remaining activity at 10 µM (Abl(T315I)(h); [4]) of 91%, a remaining activity at 10 µM (BrSK2(h); [4]) of 42% and a remaining activity at 10 µM (FGFR3(h); [4]) of 94%. It also gave a remaining activity at 10 µM (MST4(h); [4]) of 64%, a remaining activity at 10 µM (NEK1(h); [4]) of 60% and a remaining activity at 10 µM (Ret(h); [4]) of 43%.
